Values of other authors as cited in patent publication US8604163B2, “EEF2K assays for identifying compounds that inhibit EEF2K activity” (University of Medicine and Dentistry of New Jersey, priority 2009, dated 2013).

Tested on: glioma cell lines
Details: by inhibiting eEF2-K; Parmer et al. 1997

For CC(=O)c1c(O)c(C)c(O)c(Cc2c(O)c3c(c(C(=O)/C=C/c4ccccc4)c2O)OC(C)(C)C=C3)c1O [rottlerin], which “growth of glioma cell lines” value is on record?
The value was “inhibit growth of glioma cell lines”.
